Source: patent publication US8450317B2, “CXCR3 receptor antagonists” (Boehringer Ingelheim International GmbH, priority 2009, dated 2013)
Where two headings read alike, the source gives them in different places.

Biological target: CXCR3 (Macaca fascicularis, UniProt A0A2K5UV19)
Test: functional cellular assay measuring calcium flux in CXCR3 transfected cells (block of CXCR3/IP-10 interaction)
Type: cell-based, Cyno
Procedure, shortened: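 Cyno-CHO cells stably expressing CXCR3 and G-alpha-16, loaded with Ca-4 dye in HBSS/10 mM HEPES pH 7.4 with 2 mM probenecid for 1 h at 37° C. Compound (final 10 microM) preincubated 15 min at room temperature, then IP-10 at EC80 added; calcium flux read at 480/540 nm.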

[1] = IP-10 induced intracellular calcium flux, Cyno-CHO cells stably expressing recombinant CXCR3 and G-alpha-16, IP-10 at EC80, read-out: IC50

CXCR3, sequence (A0A2K5UV19 entry or part of it): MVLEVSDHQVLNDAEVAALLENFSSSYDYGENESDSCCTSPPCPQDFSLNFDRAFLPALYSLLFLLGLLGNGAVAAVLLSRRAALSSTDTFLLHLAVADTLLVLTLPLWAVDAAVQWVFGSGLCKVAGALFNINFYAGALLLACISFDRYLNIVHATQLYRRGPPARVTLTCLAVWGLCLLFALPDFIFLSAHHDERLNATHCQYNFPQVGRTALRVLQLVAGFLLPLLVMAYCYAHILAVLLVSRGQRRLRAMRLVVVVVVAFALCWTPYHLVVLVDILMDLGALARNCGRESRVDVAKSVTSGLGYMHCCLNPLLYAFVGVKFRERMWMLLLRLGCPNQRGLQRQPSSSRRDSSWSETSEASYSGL

Structure (SMILES) | IC50 [1] [nM] | IC50 [nM]
COc1ncc(-c2ccccc2N2CC3CCC(C2)N3C(=O)Cn2ccc3cccnc32)cn1 [1-{3-[2-(2-Methoxy-pyrimidin-5-yl)-phenyl]-3,8-diaza-bicyclo[3.2.1]oct-8-yl}-2-pyrrolo[2,3-b]pyridin-1-yl-ethanone] |  | 7
Cc1cc(C)n(CC(=O)N2CCN(c3ccccc3-c3cnc(N(C)C)nc3)CC2)n1 [1-{4-[2-(2-Dimethylamino-pyrimidin-5-yl)-phenyl]-piperazin-1-yl}-2-(3,5-dimethyl-pyrazol-1-yl)-ethanone] | 7 | 
CN(C)c1ncc(-c2ccccc2N2CCN(C(=O)Cn3ccc4cccnc43)CC2)cn1 [1-{4-[2-(2-Dimethylamino-pyrimidin-5-yl)-phenyl]-piperazin-1-yl}-2-pyrrolo[2,3-b]pyridin-1-yl-ethanone] | 6 | 
CCNc1ncc(-c2ccccc2N2CCN(C(=O)Cn3ccc4cccnc43)CC2)cn1 [1-{4-[2-(2-Ethylamino-pyrimidin-5-yl)-phenyl]-piperazin-1-yl}-2-pyrrolo[2,3-b]pyridin-1-yl-ethanone] | 9 | 
CS(=O)(=O)c1ncc(-c2cc(C(F)(F)F)ccc2N2CCN(C(=O)Cn3ccc4cccnc43)CC2)cn1 [1-{4-[2-(2-Methanesulfonyl-pyrimidin-5-yl)-4-trifluoromethyl-phenyl]-piperazin-1-yl}-2-pyrrolo[2,3-b]pyridin-1-yl-ethanone] | 13 | 
COc1cc(-c2ccccc2N2CCN(C(=O)Cn3ccc4cccnc43)CC2)ccn1 [1-{4-[2-(2-Methoxy-pyridin-4-yl)-phenyl]-piperazin-1-yl}-2-pyrrolo[2,3-b]pyridin-1-yl-ethanone] | 24 | 
CNc1ncc(-c2cc(C(F)(F)F)ccc2N2CCN(C(=O)Cn3ccc4cccnc43)CC2)cn1 [1-{4-[2-(2-Methylamino-pyrimidin-5-yl)-4-trifluoromethyl-phenyl]-piperazin-1-yl}-2-pyrrolo[2,3-b]pyridin-1-yl-ethanone] | 5 | 
CNc1ncc(-c2ccccc2N2CCN(C(=O)Cn3ccc4cccnc43)CC2)cn1 [1-{4-[2-(2-Methylamino-pyrimidin-5-yl)-phenyl]-piperazin-1-yl}-2-pyrrolo[2,3-b]pyridin-1-yl-ethanone] | 7 | 
CSc1ncc(-c2cc(C(F)(F)F)ccc2N2CCN(C(=O)Cn3ccc4cccnc43)CC2)cn1 [1-{4-[2-(2-Methylsulfanyl-pyrimidin-5-yl)-4-trifluoromethyl-phenyl]-piperazin-1-yl}-2-pyrrolo[2,3-b]pyridin-1-yl-ethanone] | 9 | 
CSc1ncc(-c2ccccc2N2CCN(C(=O)Cn3ccc4cccnc43)CC2)cn1 [1-{4-[2-(2-Methylsulfanyl-pyrimidin-5-yl)-phenyl]-piperazin-1-yl}-2-pyrrolo[2,3-b]pyridin-1-yl-ethanone] | 4 | 
O=C(Cn1ccc2cccnc21)N1CCN(c2ccc(C(F)(F)F)cc2-c2cnc(N3CCOCC3)nc2)CC1 [1-{4-[2-(2-Morpholin-4-yl-pyrimidin-5-yl)-4-trifluoromethyl-phenyl]-piperazin-1-yl}-2-pyrrolo[2,3-b]pyridin-1-yl-ethanone] | 15 | 
O=C(Cn1ccc2cccnc21)N1CC=C(c2ccccc2-c2cnc(N3CCOCC3)nc2)CC1 [1-{4-[2-(2-Morpholin-4-yl-pyrimidin-5-yl)-phenyl]-3,6-dihydro-2H-pyridin-1-yl}-2-pyrrolo[2,3-b]pyridin-1-yl-ethanone] | 20 | 
O=C(CNc1ccncc1)N1CCN(c2ccccc2-c2cnc(N3CCOCC3)nc2)CC1 [1-{4-[2-(2-Morpholin-4-yl-pyrimidin-5-yl)-phenyl]-piperazin-1-yl}-2-(pyridin-4-ylamino)-ethanone] | 27 | 
O=C(Cn1ccc2cccnc21)N1CCN(c2ccccc2-c2cnc(N3CCCCC3)nc2)CC1 [1-{4-[2-(2-Piperidin-1-yl-pyrimidin-5-yl)-phenyl]-piperazin-1-yl}-2-pyrrolo[2,3-b]pyridin-1-yl-ethanone] | 11 | 
O=C(Cn1ccc2cccnc21)N1CCN(c2ccccc2-c2cnc(N3CCCC3)nc2)CC1 [1-{4-[2-(2-Pyrrolidin-1-yl-pyrimidin-5-yl)-phenyl]-piperazin-1-yl}-2-pyrrolo[2,3-b]pyridin-1-yl-ethanone] | 9 | 
COc1ccc(-c2ccccc2N2CCN(C(=O)Cn3ccc4cccnc43)CC2)cn1 [1-{4-[2-(6-Methoxy-pyridin-3-yl)-phenyl]-piperazin-1-yl}-2-pyrrolo[2,3-b]pyridin-1-yl-ethanone] | 34 | 
O=C(Cn1ccc2cccnc21)N1CCN(c2c(F)cccc2-c2cnc(N3CCOCC3)nc2)CC1 [1-{4-[2-Fluoro-6-(2-morpholin-4-yl-pyrimidin-5-yl)-phenyl]-piperazin-1-yl}-2-pyrrolo[2,3-b]pyridin-1-yl-ethanone] | 27 | 
COc1ncc(-c2cc(Cl)ccc2N2CCN(C(=O)Cn3nc(C)cc3C)CC2)cn1 [1-{4-[4-Chloro-2-(2-methoxy-pyrimidin-5-yl)-phenyl]-piperazin-1-yl}-2-(3,5-dimethyl-pyrazol-1-yl)-ethanone] | 12 | 
CNc1ncc(-c2cc(Cl)ccc2N2CCN(C(=O)Cn3ccc4cccnc43)CC2)cn1 [1-{4-[4-Chloro-2-(2-methylamino-pyrimidin-5-yl)-phenyl]-piperazin-1-yl}-2-pyrrolo[2,3-b]pyridin-1-yl-ethanone] | 6 | 
CSc1ncc(-c2cc(Cl)ccc2N2CCN(C(=O)Cn3nc(C)cc3C)CC2)cn1 [1-{4-[4-Chloro-2-(2-methylsulfanyl-pyrimidin-5-yl)-phenyl]-piperazin-1-yl}-2-(3,5-dimethyl-pyrazol-1-yl)-ethanone] | 7 | 
Cc1cc(C)n(CC(=O)N2CCN(c3ccc(Cl)cc3-c3cnc(N4CCOCC4)nc3)CC2)n1 [1-{4-[4-Chloro-2-(2-morpholin-4-yl-pyrimidin-5-yl)-phenyl]-piperazin-1-yl}-2-(3,5-dimethyl-pyrazol-1-yl)-ethanone] | 11 | 
O=C(Cn1ccc2cccnc21)N1CCN(c2ccc(Cl)cc2-c2cnc(N3CCOCC3)nc2)CC1 [1-{4-[4-Chloro-2-(2-morpholin-4-yl-pyrimidin-5-yl)-phenyl]-piperazin-1-yl}-2-pyrrolo[2,3-b]pyridin-1-yl-ethanone] | 13 | 

Now from value to compound, other results behind:

IC50 [1] [nM] | Structure (SMILES) | IC50 [nM]
115 | CS(=O)(=O)c1ncc(-c2ccccc2N2CCN(C(=O)Cn3ccc4cccnc43)CC2)cn1 [1-{4-[2-(2-Methanesulfonyl-pyrimidin-5-yl)-phenyl]-piperazin-1-yl}-2-pyrrolo[2,3-b]pyridin-1-yl-ethanone] | 
8 | COc1ncc(-c2cc(C(F)(F)F)ccc2N2CCN(C(=O)Cn3ccc4cccnc43)CC2)cn1 [1-{4-[2-(2-Methoxy-pyrimidin-5-yl)-4-trifluoromethyl-phenyl]-piperazin-1-yl}-2-pyrrolo[2,3-b]pyridin-1-yl-ethanone] | 
6 | COc1ncc(-c2ccccc2N2CCN(C(=O)Cn3ccc4cccnc43)CC2)cn1 [1-{4-[2-(2-Methoxy-pyrimidin-5-yl)-phenyl]-piperazin-1-yl}-2-pyrrolo[2,3-b]pyridin-1-yl-ethanone] | 
9 | COc1ncc(-c2ccccc2N2CCN(C(=O)Cn3ccc4ccncc43)CC2)cn1 [1-{4-[2-(2-Methoxy-pyrimidin-5-yl)-phenyl]-piperazin-1-yl}-2-pyrrolo[2,3-c]pyridin-1-yl-ethanone] | 
16 | O=C(Cn1ccc2cccnc21)N1CCN(c2ccccc2-c2ccnc(N3CCOCC3)c2)CC1 [1-{4-[2-(2-Morpholin-4-yl-pyridin-4-yl)-phenyl]-piperazin-1-yl}-2-pyrrolo[2,3-b]pyridin-1-yl-ethanone] | 
35 | O=C(CNc1nccs1)N1CCN(c2ccccc2-c2cnc(N3CCOCC3)nc2)CC1 [1-{4-[2-(2-Morpholin-4-yl-pyrimidin-5-yl)-phenyl]-piperazin-1-yl}-2-(thiazol-2-ylamino)-ethanone] | 
6 | O=C(Cn1ccc2cccnc21)N1CCN(c2ccccc2-c2cnc(N3CCOCC3)nc2)CC1 [1-{4-[2-(2-Morpholin-4-yl-pyrimidin-5-yl)-phenyl]-piperazin-1-yl}-2-pyrrolo[2,3-b]pyridin-1-yl-ethanone] | 
11 | O=C(Cn1ccc2cccnc21)N1CCC(c2ccccc2-c2cnc(N3CCOCC3)nc2)CC1 [1-{4-[2-(2-Morpholin-4-yl-pyrimidin-5-yl)-phenyl]-piperidin-1-yl}-2-pyrrolo[2,3-b]pyridin-1-yl-ethanone] | 
9 | O=C(Cn1ccc2cccnc21)N1CCN(c2ccccc2-c2cnc(N3CCCOCC3)nc2)CC1 [1-{4-[2-(2-[1,4]Oxazepan-4-yl-pyrimidin-5-yl)-phenyl]-piperazin-1-yl}-2-pyrrolo[2,3-b]pyridin-1-yl-ethanone] | 
31 | O=C(Cn1ccc2cccnc21)N1CCN(c2ccccc2-c2ccc(Cl)nc2)CC1 [1-{4-[2-(6-Chloro-pyridin-3-yl)-phenyl]-piperazin-1-yl}-2-pyrrolo[2,3-b]pyridin-1-yl-ethanone] | 
24 | CS(=O)(=O)c1ncc(-c2cc(Cl)ccc2N2CCN(C(=O)Cn3ccc4cccnc43)CC2)cn1 [1-{4-[4-Chloro-2-(2-methanesulfonyl-pyrimidin-5-yl)-phenyl]-piperazin-1-yl}-2-pyrrolo[2,3-b]pyridin-1-yl-ethanone] | 
7 | COc1ncc(-c2cc(Cl)ccc2N2CCN(C(=O)Cn3ccc4cccnc43)CC2)cn1 [1-{4-[4-Chloro-2-(2-methoxy-pyrimidin-5-yl)-phenyl]-piperazin-1-yl}-2-pyrrolo[2,3-b]pyridin-1-yl-ethanone] | 
13 | CNc1ncc(-c2cc(Cl)ccc2N2CCN(C(=O)Cn3nc(C)cc3C)CC2)cn1 [1-{4-[4-Chloro-2-(2-methylamino-pyrimidin-5-yl)-phenyl]-piperazin-1-yl}-2-(3,5-dimethyl-pyrazol-1-yl)-ethanone] | 
8 | CSc1ncc(-c2cc(Cl)ccc2N2CCN(C(=O)Cn3ccc4cccnc43)CC2)cn1 [1-{4-[4-Chloro-2-(2-methylsulfanyl-pyrimidin-5-yl)-phenyl]-piperazin-1-yl}-2-pyrrolo[2,3-b]pyridin-1-yl-ethanone] | 
